Test results reported in patent US12642805B2, “Use of oxygenated cholesterol sulfates for treating at least one of insulin resistance, diabetes, and prediabetes” (Medicis Pharmaceutical Corporation, priority 2020, dated 2026).

Tests used:
Type in all cases: in vivo, rat
[1] = quantitative whole body autoradiography tissue distribution, intravenous, Sprague Dawley rats; details: 10 mg/kg intravenous
Description: (§1) Nine male Sprague Dawley rats (Group 1) were designated for the pharmacokinetic phase, 3 male Sprague Dawley rats (Group 2) for the excretion mass balance phase, and 7 male Sprague Dawley rats (Group 3) and 9 male Long Evans rats (Group 4) for the tissue distribution phase. All animals received a single intravenous dose of [1^4C]-25HC3S at 10 mg/kg and a target radioactivity of 225 μCi/kg. Blood samples were collected from all Group 1 animals at approximately 0.083, 0.25, 0.5, 1, 2, 4, 8, 12, 24, 48, and 72 hours post-dose. Urine and feces were collected from all Group 2 animals periodically through 168 hours post-dose. […] Following blood collection, animals were euthanized by CO2 inhalation and carcasses frozen in a dry ice/hexane bath for processing by quantitative whole body autoradiography. Whole blood, plasma, urine, feces, cage rinse, and cage wash were analyzed for total radioactivity by liquid scintillation counting.

[2] = plasma pharmacokinetics of radioactivity after single oral (gavage) dose; details: rats, 75 mg/kg single oral (gavage)
Description: The terminal elimination phase T1/2 was 27.3 hours.

[3] = quantitative whole body autoradiography tissue distribution, intravenous, Long Evans rats; details: 10 mg/kg intravenous
Description: as §1

[4] = excretion mass balance after single intravenous dose; details: rats, 10 mg/kg intravenous, over 168 hours
Description: as §1

[5] = plasma pharmacokinetics of radioactivity after single intravenous dose; details: rats, 10 mg/kg single intravenous bolus
Description: as §1

[6] = quantitative whole body autoradiography tissue distribution, oral, Sprague Dawley rats; details: 75 mg/kg oral
Description: No [1^4C]-25HC3S-derived radioactivity was detected in the eye (lens).

With C[C@H](CCCC(C)(C)O)[C@H]1CC[C@H]2[C@@H]3CC=C4[14CH2][C@@H](OS(=O)(=O)O)CC[C@]4(C)[C@H]3CC[C@]12C [[4-^14C]-25HC3S] the “T1/2 in plasma (QWBA phase)” value [1] was 44.3 h, the “T1/2 in whole blood (QWBA phase)” value [1] was 52.2 h and the “maximum plasma concentration (QWBA phase)” value [1] was 12,400 ng-equiv./g. For the same compound, the “plasma:whole blood AUClast ratio” value [1] was 0.79, the “tissue:plasma ratio (AUClast), liver” value [1] was 11.4 and the “tissue:plasma ratio (AUClast), small intestine (wall)” value [1] was 7.44. For the same compound, the “tissues in which radioactivity was detected” value [1] was “all tissues except the eye (lens)”, the “terminal elimination phase T1/2, plasma” value [2] was 27.3 h and the “time by which plasma and whole blood concentrations were below quantitation limit” value ([3]; Long Evans (pigmented) rats) was no more than 336 h. For the same compound, the “binding to pigmented or non-pigmented skin or the uveal tract” value ([3]; Long Evans rats) was “no difference in binding to pigmented or non-pigmented skin or the uveal tract”, the “time by which concentrations in skin and uveal tract tissues were below quantitation limit” value ([3]; Long Evans rats) was no more than 168 h and the “recovered radioactivity in feces” value [4] was 83.0%. The “mean plasma C0 (radioactivity)” value [5] was 25,900 ng-equiv./g, the “Skin, thymus, prostate, and pituitary tissue concentrations” value [6] was less than 3000 ng equiv./g and the “Uveal tract and brain concentrations” value [6] was “approximately 1000 ng equiv./g”. The “tissue Tmax” value [6] was no more than 6 h, the “tissue:plasma ratio (AUClast), adrenal gland” value [6] was 6.64 and the “tissue:plasma ratio (AUClast), liver” value [6] was 6.96. The “tissue:plasma ratio (AUClast), small intestine (wall)” value [6] was 15.4 and the “tissues in which radioactivity was detected” value [6] was “all tissues except the eye (lens)”.
